Consider 9 compounds from patent US12617759B2, “Modifier of four-membered ring derivative, preparation method and application thereof” (Shanghai Hansoh Biomedical Co., Ltd., priority 2019, dated 2026).

A short description of data set [1]: Stability in human liver microsome in vitro. Type of data set: in vitro ADME. The settings on record: for half-life at 1 μM / microsomal CLint at 1 μM: human liver microsomes, pH 7.4, 1 μM compound, NADPH/UDPGA; for half-life at 1 μM: read-out: Half life (t1/2); for microsomal CLint at 1 μM: read-out: Intrinsic clearance rate (CLint). As for the experimental part:
(§1) To evaluate the metabolic stability of the compounds of the present invention in liver microsome in vitro.
(§2) Formulation of the working solution of the compound: 2 μL of the stock solution of the compound was added to 998 μL of phosphate buffer, and the final concentration was 20 μM.
(§3) 78.1 μL of 20 mg/mL microsome was diluted to 2.5 mL with 100 mM phosphate buffer and mixed well, and the final concentration was 0.625 mg/mL.
(§4) 33.3 mg of NADPH and 25.8 mg of UDPGA were weighed respectively, followed by the addition of 2 mL of 100 mM phosphate buffer. The final concentrations were 20 mM.
(§5) 1 mg of Alamethicin was weighed, to which 200 μL of DMSO was added to obtain a 5 mg/mL solution. 10 μL of this solution was added to 990 μL of phosphate buffer (pH 7.4), and the final concentration was 50 μg/mL.
(§6) 400 μL of the formulated liver microsome, 25 μL of the working solution of the compound (10 μM) and 25 μL of Alamethicin (50 μg/mL) were added to a 96-well plate successively, which was then pre-incubated at 37° C. for 10 min. 50 μL of the formulated NADPH/UDPGA was added to initiate the reaction, and the plate was incubated at 37° C. The total volume of the reaction system was 500 μL. The final contents of the components are as follows:
(§7) […] The resulting sample was centrifuged at 4000 g for 10 min, and the supernatant was collected for LC-MS/MS analysis.
In general terms: Microsomes from liver hold many membrane-bound enzymes, among them those of drug oxidation.

A short description of data set [2]: Stability in rat liver microsome in vitro. Type of data set: in vitro ADME, SD rat. The settings on record: for half-life at 1 μM / microsomal CLint at 1 μM: SD, rat liver microsomes, pH 7.4, 1 μM compound, NADPH/UDPGA; for half-life at 1 μM: read-out: Half life (t1/2); for microsomal CLint at 1 μM: read-out: Intrinsic clearance rate (CLint). As for the experimental part:
as §1, §2, §3, §4, §5, §6, §7

The nature of data set [3]: Stability in dog liver microsome in vitro. Type of data set: in vitro ADME. The note with it: for half-life at 1 μM / microsomal CLint at 1 μM: dog liver microsomes, pH 7.4, 1 μM compound, NADPH/UDPGA; for half-life at 1 μM: read-out: Half life (t1/2); for microsomal CLint at 1 μM: read-out: Intrinsic clearance rate (CLint). As for the experimental part: as §1, §2, §3, §4, §5, §6, §7

For data set [4], the target named is T1, Human Dopamine D3 Receptor membrane (Homo sapiens, UniProt P35462).
T1 construct: purchased PerkinElmer ES-173-M400UA
As to the kind of experiment: Radioligand binding assay, dopamine D3 receptor ([3H]-methylspiperone). As for the experimental part: The objective of this test example is to determine the affinity of the compounds for dopamine D3 receptor.
(§8) 0.5 to 5 μL of the test compounds (0.005 nM to 100 nM, 10 concentrations in total) and 100 μL of buffer were added to a 96-well assay plate. 0.5 μL of cell membrane and 300 μL of buffer were added to each well. [^3H]-methylspiperone was added to the buffer, and the plate was incubated at 27° C. for 30 min. The […]-96 GF/B filter plate pre-incubated with 0.5% PEI for 1 h was washed twice with the buffer (1 mL/well). The cell membrane suspension was added to the […]-96 GF/B filter plate, washed 4 times, and incubated at 55° C. for 10 min. 40 μL of ULTIMA GOLD was added to each well, and liquid scintillation counting was carried out.
(§9) The CPM (Counts per minute) values were determined by TopCount. […] The 10 concentrations of the compound were from 100 nM to 0.005 nM after 3-fold dilution of the reaction system. The percent inhibition rate and ten-point concentration data were fitted to the parametric nonlinear logistic equation by using GraphPad prism to calculate the IC50 values of the compound.

In the next data set the target is T2, D3 receptor (Homo sapiens, UniProt P35462).
T2 construct: expressed in transfected cells; host or cells: CHO (CHO-D3, G418 selection)
The experiment in a line: cAMP content in cells stably expressing D3 receptors (CHO-D3). Type of data set: cell-based. The note with it: forskolin, agonistic activity. As for the experimental part: To determine the activation effect of the compounds on D3 receptor.
3. Experimental Method: • 1. Preparation of the buffer: 1*HBSS+20 mM HEPES+0.1% BSA+500 μM IBMX. • Complete medium: Ham's F12K+10% fetal bovine serum+1*penicillin-streptomycin+400 µg/mL G418. • 2. CHO-D3 cells were cultured in the complete medium at 37° C., 5% C02. After TrypLE digestion, the cells were resuspended in the experimental buffer, and seeded into a 384-well cell culture plate at a seeding density of 8000 cells per well. • 3. The experimental buffer (1*HBSS, 0.1% BSA, 20 mM HEPES and 500 μM IBMX) was prepared. The compound was diluted with the buffer. 2.5 μL of the compound solution was added to each well, and the plate was incubated at 37° C. for 10 minutes. The forskolin was diluted to 8 μM (8*) with the experimental buffer. 2.5 μL of the diluted 8*forskolin was added, and the plate was incubated at 37° C. for 30 minutes. cAMP-d2 and Anti-cAMP-Eu^3+ were thawed, and diluted by 20-fold with the lysis buffer. 10 μL of cAMP-d2 was added to the experimental well, followed by the addition of 10 μL of Anti-cAMP-Eu^3+. The reaction plate was centrifuged at 200 g for 30 s at room temperature, and left to stand at 25° C. for 1 h. Data was collected using Envision. 4. […]

For data set [5], the target named is T3, 5-HT2A receptor (Homo sapiens, UniProt P28223). As to the kind of experiment: Radioligand binding assay, 5-HT2A receptor ([3H]-Ketanserin). The note with it: human 5-HT2A receptor membrane, read-out: 5HT-2A Binding IC50. The arrangement: purchased PerkinElmer. As for the experimental part:
The objective of this test example is to determine the affinity of the compounds for 5-HT2A receptor.
as §8, with “[^3H]-Ketanserin” for “[^3H]-methylspiperone”
as §9

In data set [6] the target is T3, 5-HT2A receptor. The experiment in a line: Calcium ion mobility in cells stably expressing 5-HT2A receptors (Flp-In-CHO-5HT2A, FLIPR). Type of data set: cell-based. The arrangement: expressed in transfected cells. The note with it: Flp-In-CHO-5HT2A stable pool, inhibition of 5HT response. As for the experimental part:
To determine the inhibitory effect of the compounds on 5-HT2A receptor.
3. […] Probenecid and BSA were added fresh on the day of the experiment. […] 4. Experimental Data Processing Method:
The calcium signal values were determined by FLIPR. The calculated output for each sampling time point in the experiment was the ratio of the 340/510 nm wavelength signals to 380/510 nm wavelength signals. The maximum minus minimum calculation was derived from the ratio signal curve. The percent inhibition rate and ten-point concentration data were fitted to the parametric nonlinear logistic equation by using GraphPad prism to calculate the IC50 values of the compound.

As a reminder, the IC50 is the point on the concentration scale where inhibition reaches its midpoint. As usually defined, the EC50 is the concentration giving half of the maximal effect.

Structures are written as SMILES.

T3 sequence (P28223 whole entry): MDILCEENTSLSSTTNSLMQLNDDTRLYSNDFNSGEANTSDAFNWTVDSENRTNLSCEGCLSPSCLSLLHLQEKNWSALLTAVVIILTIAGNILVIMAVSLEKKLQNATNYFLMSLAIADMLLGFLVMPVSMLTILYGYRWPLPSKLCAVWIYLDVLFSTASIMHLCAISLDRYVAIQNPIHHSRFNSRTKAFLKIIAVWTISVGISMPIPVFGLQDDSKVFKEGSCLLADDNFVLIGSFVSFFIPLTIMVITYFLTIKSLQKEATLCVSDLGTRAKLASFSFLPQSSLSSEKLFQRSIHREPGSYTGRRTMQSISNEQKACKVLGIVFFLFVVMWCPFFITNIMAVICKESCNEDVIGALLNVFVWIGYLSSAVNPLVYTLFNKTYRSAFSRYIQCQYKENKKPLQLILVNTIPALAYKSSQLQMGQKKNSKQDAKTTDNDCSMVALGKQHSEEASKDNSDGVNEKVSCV
T2 sequence (P35462 whole entry): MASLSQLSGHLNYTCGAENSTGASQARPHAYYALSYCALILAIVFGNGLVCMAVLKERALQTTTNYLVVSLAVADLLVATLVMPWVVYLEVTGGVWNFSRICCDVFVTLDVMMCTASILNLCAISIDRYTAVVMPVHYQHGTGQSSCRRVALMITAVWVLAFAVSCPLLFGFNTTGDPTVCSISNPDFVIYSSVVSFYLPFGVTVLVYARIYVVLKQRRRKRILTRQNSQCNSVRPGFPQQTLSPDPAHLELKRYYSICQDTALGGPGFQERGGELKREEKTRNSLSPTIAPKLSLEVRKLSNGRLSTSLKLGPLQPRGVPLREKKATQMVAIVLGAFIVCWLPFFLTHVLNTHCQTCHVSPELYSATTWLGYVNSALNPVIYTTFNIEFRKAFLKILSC
T1 sequence (P35462 whole entry): as above

As to `CN(C)C(=O)N[C@H]1CC[C@H](CCN2CCN(c3cccc(Cl)c3Cl)CC2)CC1` [Cariprazine, reference compound], the “Remaining (%, 120 min)” value was found to be 34.4% in data set [1], 19.1% in data set [2] and 21.4% in data set [3]. The half-life at 1 μM in data set [1] was found to be 77.2 min; in data set [2], 52.7 min; in data set [3] it was 50.1 min. The results for the microsomal CLint at 1 μM in data set [1], in data set [2] and in data set [3] were 18 µL/min/mg, 26.3 µL/min/mg and 27.7 µL/min/mg, respectively.
In the case of `CN(C)C(=O)NC1CC(CCN2CCN(c3cccc4sccc34)CC2)C1` (stereo not drawn) [Example 6, 3-(3-(2-(4-(Benzo[b]thiophen-4-yl)piperazin-1-yl)ethyl)cyclobutyl)-1,1-dimethylurea], in data set [1], the “Remaining (%, 120 min)” value was 61.2%; the half-life at 1 μM was determined as 76.3 min; the microsomal CLint at 1 μM stood at 45.4 µL/min/mg.
In the case of `CC(C)(O)C(=O)N[C@H]1C[C@H](CCN2CCN(c3cccc(Cl)c3Cl)CC2)C1` [Example 11A], the IC50 was 0.95 nM in data set [4], 41.5 nM at 5-HT2A receptor [5] and 39 nM on 5-HT2A receptor [6]. In addition, on D3 receptor, a half-maximal effect (EC50) was put at 0.4 nM.
For `O=C(NC1CC(CCN2CCN(c3cccc(Cl)c3Cl)CC2)C1)C1(O)CC1` (stereo not drawn) [Example 13, N-(3-(2-(4-(2,3-Dichlorophenyl)piperazin-1-yl)ethyl)cyclobutyl)-1-hydroxycyclopropane-1-carboxamide], in data set [1], the “Remaining (%, 120 min)” value is 63.0%; the half-life at 1 μM is 93.3 min; the microsomal CLint at 1 μM is 37.2 µL/min/mg.
The matching figures for `O=C(N[C@H]1C[C@H](CCN2CCN(c3cccc(Cl)c3Cl)CC2)C1)C1(O)CC1` [Example 13A, N-(Trans-3-(2-(4-(2,3-dichlorophenyl)piperazin-1-yl)ethyl)cyclobutyl)-1-hydroxycyclopropane-1-carboxamide]: 53.3%, 139 min and 10 µL/min/mg.
Take `CC(C)(O)CC(=O)NC1CC(CCN2CCN(c3cccc(Cl)c3Cl)CC2)C1` (stereo not drawn) [Example 15, N-(3-(2-(4-(2,3-Dichlorophenyl)piperazin-1-yl)ethyl)cyclobutyl)-3-hydroxy-3-methylbutanamide]: in data set [1], the “Remaining (%, 120 min)” value came to 79.5%; the half-life at 1 μM was 189 min; the microsomal CLint at 1 μM came to 18.3 µL/min/mg.
With `O=C(N[C@H]1C[C@H](CCN2CCN(c3cccc(Cl)c3Cl)CC2)C1)c1ncco1` [Example 20A, N-(Trans-3-(2-(4-(2,3-dichlorophenyl)piperazin-1-yl)ethyl)cyclobutyl)oxazole-2-carboxamide], the “Remaining (%, 120 min)” value was found to be 42.8% in data set [1], 25.4% in data set [2] and 29.2% in data set [3]. Further, the half-life at 1 μM in data set [1] amounted to 106 min; in data set [2], 60 min; in data set [3], 70.6 min. The microsomal CLint at 1 μM in data set [1] is 13.1 µL/min/mg; in data set [2], 23.1 µL/min/mg; in data set [3], 19.6 µL/min/mg.
With `Cc1cc(C(=O)N[C@H]2C[C@H](CCN3CCN(c4cccc(Cl)c4Cl)CC3)C2)on1` [Example 22A], the IC50 was 0.34 nM in data set [4], 1.35 nM at 5-HT2A receptor [5] and 4.37 nM at 5-HT2A receptor [6]. Also, it took 0.9 nM to reach a half-maximal effect at D3 receptor (EC50).
As to `Cc1ncc(C(=O)N[C@H]2C[C@H](CCN3CCN(c4cccc(Cl)c4Cl)CC3)C2)o1` [Example 24A], the IC50 in data set [4] turned out to be 0.33 nM; at 5-HT2A receptor [5], 1.8 nM; at 5-HT2A receptor [6], 4.28 nM. The compound also yielded a concentration for a half-maximal effect (EC50) on D3 receptor of 1.7 nM.
